Test results as given in patent publication EP0511381B1, “SQUARYLIUM AND CROCONYLIUM DYES” (POLAROID CORPORATION, priority 1990, dated 1992).
Structures can show the parent of a compound that is named as a salt. Blank lines part the entries; values can stand above or below the molecule they belong to.

Legend:
Assay type in all cases: physicochemical
[1] = Solubility in dichloromethane (saturated solution); conditions: weight percentage of dye to solvent in a saturated solution
Source text: This Example illustrates the high solubility in halogenated organic solvents which can be achieved by dyes of the present invention, as compared with similar dyes which bear 2-phenyl or -substituted phenyl groups.

[2] = Absorption and thermal stability of dye in polymer films; design: λmax: unit not given here; conditions: for Width: full width of infra-red absorption peak at half maximum
Protocol: This Example illustrates the high absorptions which can be achieved by a dye of the present invention when dispersed in a polymer, and the thermal stability of such dispersed polymer.
The polymers tested in this Example were polystyrene/acrylonitrile, polyvinylbutyral and polyvinylformal polymers. 10.0 mg of the dye (hereinafter referred to as "Dye B") prepared as described in Example 5 above was dissolved in 2.0 mL of a 2.5% w/v solution of each polymer in dichloromethane, and the resultant solution was coated onto a transparent 4 mil polyvinyl chloride base using a No. 10 coating rod. The resultant film was oven dried at 80°C for 10 minutes. After the film had cooled, the wavelength of maximum infra-red absorption (λmax), the absorbance at λmax (Amax), and the full width of the infra-red absorption peak at half maximum were measured. The film samples were then stored in the dark for 15 days at 80°C, and the same absorption parameters were remeasured to give the data shown in Table 1, in which initial values are shown, with values after heating in parentheses.

[3] = Photochemical stability of dye in polymer films
Protocol: This Example illustrates the photochemical stability of a dye of the present invention in a polymer matrix.
20 mg of Dye B prepared as described in Example 5 above and 100 mg of a test polymer (polyvinylbutyral or polyacrylate) were dissolved in dichloromethane, and the resultant solution was coated onto PET transparent base using a #4 coating rod. The maximum absorbance of the resultant film was measured before and after exposure of the coated side of the base to irradiation with a fluorescent lamp (560 ft. candles) for 24 or 67 hours. The results are shown in Table 2 below (with the absorbance after irradiation in parentheses).

[4] = Storage stability of thermal imaging medium containing the dye; conditions: imaging medium (dye, leuco dye LD3, polyurethane Estane 5715 binder) stored at 60°C for 4 days
Protocol: A coating fluid was prepared by combining the infra-red dye of Formula IR4 above (prepared in Example 12 above, 2.6 mg) with a leuco dye of Formula LD3 above (110 mg) and a polymeric binder (polyurethane Estane 5715, supplied by B.F. Goodrich, 0.73 mL of a 15% solution in acetone). The fluid was diluted with acetone (0.157 mL), then coated onto a 4 mil (101 »m) transparent poly(ethylene terephthalate) base using a #12 coating rod. The film so formed was laminated at 180°F […] and 60 psi (0.4 MPa) to a second sheet of 4 mil (101 »m) poly(ethylene terephthalate) which had been coated with Joncryl 138 to a thickness of approximately 2 »m.

[5] = Polyvinylbutyral film, after 15 days at 80°C in the dark
[6] = Polyvinylbutyral film, initial value
[7] = Polyvinylformal film, after 15 days at 80°C in the dark
[8] = Polyvinylformal film, initial value
[9] = SAN (polystyrene/acrylonitrile) film, after 15 days at 80°C in the dark
[10] = SAN (polystyrene/acrylonitrile) film, initial value

Structure (SMILES): CCN(CC)c1ccc2c(c1)OC(c1ccccc1)=CC2=CC1=C([O-])C(=Cc2cc(-c3ccccc3)[o+]c3cc(N(CC)CC)ccc23)C1=O [Control Dye y, reference compound]
Solubility [1]: 0.02 wt. %

Structure (SMILES): CCN(CC)c1ccc2c(c1)OC(c1ccc(C)cc1C)=CC2=CC1=C([O-])C(=Cc2cc(-c3ccc(C)cc3C)[o+]c3cc(N(CC)CC)ccc23)C1=O [Control Dye z, reference compound]
Solubility [1]: 0.1 wt. %

Structure (SMILES): CCC(CC)COc1ccc2c(c1)OC(C(C)(C)C)=CC2=CC1=C([O-])C(=Cc2cc(C(C)(C)C)[o+]c3cc(N(CC)CC)ccc23)C1=O [IR4, 4-[[3-[[7-diethylamino-2-[1,1-dimethylethyl]benz[b]-4H-pyran-4-ylidene]methyl]-2-hydroxy-4-oxo-2-cyclobuten-1-ylidene]methyl]-7-[2-ethylbut-1-oxy]-2-[1,1-dimethylethyl]benz[b]pyrylium hydroxide inner salt dye]
loss of near infra-red absorption [4]: 2.4%

The next lines start with the values.

Amax [2, 5]: 2.16 | λmax [2, 5]: 812 | Amax [2, 6]: 2.99 | λmax [2, 6]: 815 | Amax [2, 7]: 2.64 | λmax [2, 7]: 820 (820) | Amax [2, 8]: 2.62 | λmax [2, 8]: 820 (820) | Amax [2, 9]: 2.68 | λmax [2, 9]: 826 (826) | Amax [2, 10]: 2.59 | λmax [2, 10]: 826 (826) | Width [2, 5]: 79 nm | Width [2, 6]: 70 nm | Width [2, 7]: 80 (80) nm | Width [2, 8]: 80 (80) nm | Width ([2]; SAN film, after 15 days at 80°C in the dark): 74 (74) nm | Width ([2]; SAN film, initial value): 74 (74) nm | Solubility [1]: 11.5 wt. % | Amax ([3]; Polyacrylate film, after 24 hours irradiation with fluorescent lamp (560 ft. candles)): 0.78 | Amax ([3]; Polyacrylate film, before irradiation): 0.84 | Amax ([3]; Polyvinylbutyral film, after 67 hours irradiation with fluorescent lamp (560 ft. candles)): 1.018 | Amax ([3]; Polyvinylbutyral film, before irradiation): 1.225
Structure (SMILES): CCN(CC)c1ccc2c(c1)OC(C(C)(C)C)=CC2=CC1=C([O-])C(=Cc2cc(C(C)(C)C)[o+]c3cc(N(CC)CC)ccc23)C1=O [Dye B]

Solubility [1]: 0.4 wt. %
Structure (SMILES): CCN(CC)c1ccc2c(c1)OC(C1CCCCC1)=CC2=CC1=C([O-])C(=Cc2cc(C3CCCCC3)[o+]c3cc(N(CC)CC)ccc23)C1=O [Dye F, 4-[[3-[2-cyclohexyl-7-diethylamino-(benz[b]-4H-pyran-4-ylidene)methyl]-2-hydroxy-4-oxo-2-cyclobuten-1-ylidene]methyl]-2-cyclohexyl-7-diethylaminobenz[b]pyrylium hydroxide inner salt dye]
